Experimental data taken from patent US12433876B2, “Septin inhibitors for treatment of cancers” (UNIVERSITY OF ROCHESTER, priority 2019, dated 2025).

Target: T1, septin-2 (Homo sapiens, UniProt Q15019)
T1 sequence (Q15019 1-361): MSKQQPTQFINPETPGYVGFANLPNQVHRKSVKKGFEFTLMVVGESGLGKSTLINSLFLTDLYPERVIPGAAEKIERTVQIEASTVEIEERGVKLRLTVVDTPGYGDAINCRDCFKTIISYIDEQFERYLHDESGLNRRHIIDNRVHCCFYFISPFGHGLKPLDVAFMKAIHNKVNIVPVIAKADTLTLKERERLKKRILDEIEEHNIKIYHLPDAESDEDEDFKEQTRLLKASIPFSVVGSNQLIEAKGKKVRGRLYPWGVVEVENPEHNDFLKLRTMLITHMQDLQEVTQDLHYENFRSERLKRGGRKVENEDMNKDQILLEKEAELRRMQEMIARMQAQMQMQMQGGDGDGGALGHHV
Assay: Confocal analysis of septin-2 filament structure
Type: cell-based
Settings: 48 hours
Excerpt: Cell Cycle Protein Expression. Cell Cycle Antibody Array (FullMoon BioSystems Inc, catalogue number: ACC:058), a high throughput ELISA based antibody array, designed for qualitative/semi-quantitative protein expression profiling was employed to investigate the protein changes after drug treatment. PANC-1 cells were lysed in buffer containing protease and phosphatase inhibitors (Cell Signaling, catalog number: 9803S). Total protein content was quantified by Bradford assay and equal amounts of proteins were analyzed in duplicate with arrays containing 4 to 6 spots for each of 60 probes (ACC058, Cell Cycle Antibody Array; Full Moon Biosystems, Sunnyvale, Calif.), according to manufacturer's instructions. After background correction, mean signal intensities were measured using FullMoon Inc's imaging services. Protein expressions in both the naïve and 328 treatment group was normalized to GAPDH signals. Confocal Analysis of Septin Disarrangement. To determine the impact of UR214-9 treatment on Septin-2 structure in cells, PANC-1 or JIMT-1 cells were seeded on glass slides and allowed to adhere overnight. The media was replaced with complete DMEM media supplemented with DMSO or UR214-9 (1 μM and 70 nM) and cells were incubated for 48 hours. Media was replaced again with new complete medium and fixed with neutral buffered formalin for 15 minutes at […]. Media was removed and cells were washed repeatedly with PBST (5×5 mL). The cells were stained with Septin-2 antibody (Sigma Aldrich, catalog number: HPA018481) in PSB overnight at […]. Media was removed again and cells were washed with 2×5 mL PBST. The cells were stained with fluorescence linked secondary antibody for 1 hr under dark. Slides were washed repeatedly in dark for 7×5 mL PBST, mounting medium containing DAPI (Vector labs) were applied and covered with glass slide. The slides were stored in dark at […] till analysis. Confocal images were obtained and processed essentially as published earlier (see Moore, R. G., Hill, E. K., Horan, T., Yano, N., Kim, K., MacLaughlan, S., Lambert-Messerlian, G., Tseng, Y. D., Padbury, J. F., Miller, M. C., Lange, T. S., Singh, R. K. Sci Rep. 4, 3574, 2014). Pancreatic tumor microarray (US Biomax, cat no: T142a) were deparaffinized, processed and stained with Septin-2 antibody (Sigma Aldrich, cat number: HPA018481) overnight, washed with PBST and incubated with source matched secondary (FITC) for an hour. Slide was washed in PBST (5×10 mL) for five minutes each. DAPI containing mounting media was applied and covered with a glass slide. Confocal images were acquired with Nikon C1si confocal microscope (Nikon Inc. Mellville N.Y.) using diode lasers 402, 488 and 561. […] Five cells were outlined and analyzed per field. […]

| Structure (SMILES) | septin-2 needles (JIMT-1, 1 μM) | septin-2 needles (PANC-1, 1 uM) | septin-2 filaments (SKOV-3, 1 μM) | septin-2 filaments (BXPC-3 cells, 60 μM) |
| --- | --- | --- | --- | --- |
| O=C(Nc1cc(Cl)nc(Cl)c1)Nc1cccc(SC(F)(F)F)c1F [UR214-9] | structural disruptions and relocation to nuclear periphery | disarranged and translocated at the cell-surface | complete disruption of septin-2 filaments |  |
| O=C(Nc1ccccc1)Nc1ccnc(Cl)c1 [FCF, N-(2-chloro-4-pyridyl)-N′-phenylurea, reference compound] |  |  |  | strengthen the septin-2 filaments |
